Usually IC50 stands for the concentration that inhibits the measured activity by half. Broadly, the IC90 is the point of the concentration-response curve where the effect stands at 90%.

Calls of active or inactive are those of the source. No rule for the calls is given here.

This is an account of results in PubChem BioAssay AID434987 (Southern Research Specialized Biocontainment Screening …, 2010).

The subject of this experiment is M. tuberculosis H37Rv growth inhibition with meropenem. In words: dose response, H37Rv, with and without meropenem (AID 434987).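 Also: growth over 7 days at 37 °C before Alamar Blue read on day 9.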
The mark [1] stands for this setting: M. tuberculosis H37Rv growth inhibition, measured here: IC50 without meropenem.
The mark [2] stands for this setting: M. tuberculosis H37Rv growth inhibition, measured here: IC90 without meropenem.
Where [3] appears, read: measured here: IC90 with meropenem.

With `S=C(Nc1ccc(Cl)cc1)c1nc2ccccc2s1`, the IC50 is 43.2 µM (inactive). For the same compound, the IC50 under setting [1] was greater than 100 µM. In addition, under setting [2], the 90% effect concentration (IC90) was greater than 100 µM. For the same compound, the IC90 under setting [3] was greater than 100 µM.

Consider `O=C(CN1CCN(c2ccc(F)cc2)CC1)Nc1ccccc1C(=O)NCCc1ccccc1`, for which the IC50 was 35.1 µM. This compound came in with a half-maximal inhibitory concentration (IC50) under setting [1] greater than 100 µM. The same compound registered an IC90 under setting [2] greater than 100 µM. Besides, the IC90 under setting [3] is greater than 100 µM.

Turning to `CCOC(=O)N1CCC(N2CCN(S(=O)(=O)c3ccc(Cl)cc3)CC2)CC1`, the IC50 was > 100 µM (inactive). The same compound showed an IC50 under setting [1] greater than 100 µM. Under setting [2], this compound showed an IC90 greater than 100 µM. This compound also showed an IC90 under setting [3] greater than 100 µM.

Turning to `CN(C)S(=O)(=O)c1ccc(C(=O)/C=C/c2cccnc2)cc1`, the IC50 is 5.92 µM (inactive). This compound had an IC50 under setting [1] of 9.41 µM. This compound also came in with a 90% effect concentration (IC90) under setting [2] of 13.9 µM. The IC90 under setting [3] was 12.1 µM.

Turning to `CCC(C)NCCOCCOc1ccc(Cl)c2ccccc12` (stereo not drawn), the IC50 was 32 µM (inactive). For the same compound, under setting [1], the half-maximal inhibitory concentration (IC50) came to 38.3 µM. This compound registered an IC90 under setting [2] of 53.3 µM. This compound yielded an IC90 under setting [3] of 50.7 µM.

Regarding `S=C(Nc1ccccc1)Nc1ccc(Cl)cn1`, the IC50 is 4.68 µM. The compound further had an IC50 under setting [1] of 90.6 µM. Further, the IC90 under setting [2] is greater than 100 µM. Under setting [3], this compound yielded an IC90 greater than 100 µM.

Consider `O=C(COc1ccc2ccccc2c1)Nc1nc2ccccc2[nH]1`, for which the IC50 is 5.83 µM. Under setting [1], this compound registered an IC50 of 62 µM. Moreover, the IC90 under setting [2] was greater than 100 µM. For the same compound, the IC90 under setting [3] was greater than 100 µM.

For `CCn1nnnc1SCC(=O)c1ccc(C)cc1C`, the IC50 was > 100 µM (inactive). Besides, the half-maximal inhibitory concentration (IC50) under setting [1] is greater than 100 µM. Under setting [2], this compound gave an IC90 greater than 100 µM. This compound also came in with an IC90 under setting [3] greater than 100 µM.

In the case of `Cc1cc(C)n(-c2nc3ccccc3c(=O)n2OCC(=O)N(C)C)n1`, the IC50 was 7.74 µM. In addition, the IC50 under setting [1] was found to be 79.2 µM. Under setting [2], this compound had an IC90 greater than 100 µM. Also, the IC90 under setting [3] was 23.3 µM.

As to `Cc1ccc2nc(-c3ccc(NC(=S)NC(=O)C(C)C)cc3)sc2c1`, the IC50 is > 100 µM (inactive). Under setting [1], this compound gave an IC50 greater than 100 µM. This compound came in with a concentration for an effect of 90% (IC90) under setting [2] greater than 100 µM. Further, the IC90 under setting [3] was greater than 100 µM.

As for `CN(C)CCCN(C(=O)/C=C/c1cccs1)c1nc2ccc(F)cc2s1`, the IC50 is 45.2 µM (inactive). This compound showed an IC50 under setting [1] of 45.8 µM. This compound showed an IC90 under setting [2] of 49.2 µM. The compound further returned an IC90 under setting [3] of 48.4 µM.

For the compound `O=C(Nc1nc2ccccc2[nH]1)c1ccccc1F`, the IC50 was > 100 µM (inactive). This compound yielded an IC50 under setting [1] greater than 100 µM. Also, the IC90 under setting [2] is greater than 100 µM. This compound had an IC90 under setting [3] greater than 100 µM.

`O=C1NC(c2ccc(Br)cc2)Nc2sc3c(c21)CCC3` (stereo not drawn): the IC50 was > 100 µM (inactive). Under setting [1], this compound came in with a concentration for half-maximal inhibition (IC50) greater than 100 µM. The same compound gave a 90% effect concentration (IC90) under setting [2] greater than 100 µM. For the same compound, the IC90 under setting [3] is greater than 100 µM.

With `CCCCCc1ccc(-c2ccc(/C=C/C(N)=O)cc2)nc1`, the IC50 is > 100 µM (inactive). Further, under setting [1], the IC50 is greater than 100 µM. Under setting [2], this compound gave an IC90 greater than 100 µM. Under setting [3], this compound returned an IC90 greater than 100 µM.

For the compound `O=C(COC(=O)C1CC1)NCc1ccccc1Cl`, the IC50 was 1.37 µM. Further, under setting [1], the IC50 is greater than 100 µM. Besides, under setting [2], the IC90 was greater than 100 µM. This compound came in with an IC90 under setting [3] greater than 100 µM.

As to `Cc1ccc(C(=O)OCCN2CCN(c3ncc(C(F)(F)F)cc3Cl)CC2)cc1`, the IC50 is > 100 µM (inactive). The same compound yielded an IC50 under setting [1] greater than 100 µM. Under setting [2], this compound came in with an IC90 greater than 100 µM. Also, under setting [3], the IC90 was greater than 100 µM.

Turning to `O=C(CCNc1ccc(F)cc1)c1cccc([N+](=O)[O-])c1`, the IC50 is > 100 µM (inactive). Besides, the IC50 under setting [1] is greater than 100 µM. This compound returned an IC90 under setting [2] greater than 100 µM. Under setting [3], this compound came in with an IC90 greater than 100 µM.

Regarding `CC1CCN(CCOc2ccc(OCc3ccccc3)cc2)CC1`, the IC50 is 74 µM (inactive). The same compound registered a half-maximal inhibitory concentration (IC50) under setting [1] of 98.4 µM. Also, under setting [2], the IC90 is greater than 100 µM. This compound also returned an IC90 under setting [3] greater than 100 µM.

On to `COC(=O)c1ccc(/C=N/Nc2nc(-c3ccc(C)cc3)cs2)cc1`, for which the concentration for half-maximal inhibition (IC50) is 10.9 µM. The IC50 under setting [1] was greater than 100 µM. The IC90 under setting [2] was greater than 100 µM. Also, under setting [3], the IC90 was greater than 100 µM.

Consider `Cc1cc(C)c2oc(-c3ccc(Cl)c(NC(=O)c4ccc(C#N)cc4F)c3)nc2c1`, for which the IC50 is > 100 µM (inactive). Under setting [1], the IC50 was greater than 100 µM. Under setting [2], this compound returned an IC90 greater than 100 µM. Moreover, under setting [3], the IC90 is greater than 100 µM.

Consider `Cc1ccccc1Cn1cc(NC(=O)CSc2nc3c(c(C(F)(F)F)n2)CCc2ccccc2-3)cn1`, for which the half-maximal inhibitory concentration (IC50) was 26.4 µM. The compound also came in with an IC50 under setting [1] greater than 100 µM. Under setting [2], the IC90 is greater than 100 µM. Further, the IC90 under setting [3] is greater than 100 µM.

For `Cc1ccc(S(=O)(=O)NCCCCCC(=O)Nc2ccccn2)cc1`, the IC50 is > 100 µM (inactive). Under setting [1], this compound yielded an IC50 greater than 100 µM. The IC90 under setting [2] was greater than 100 µM. Under setting [3], this compound gave an IC90 greater than 100 µM.
